Key:
Assay type in all cases: in vivo
[1] = system: Abutilon theophrasti (ABUTH); assay: Herbicidal pre-emergence action, test C (Table C5); details: visual scoring after about 3 weeks, 100% = plants have died, 0% = like control plants
How it was run: (§1)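 Pre-emergence soil-surface spray, 1280 or 320 g/ha, WP/EC in water with 0.5% additive, 600 L/ha. Sandy loam pots, doubly sown. Greenhouse ~3 weeks; visual % effect vs untreated (0% = like control, 100% = dead).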

[2] = system: Stellaria media (STEME); assay: Herbicidal pre-emergence action, test C (Table C8); details: visual scoring after about 3 weeks, 100% = plants have died, 0% = like control plants
How it was run: as §1

[3] = system: Echinochloa crus-galli (ECHCG); assay: Herbicidal pre-emergence action, test C (Table C1); details: dosage 1280 g/ha; visual scoring after about 3 weeks; 100% = plants have died, 0% = like control plants
How it was run: as §1

[4] = system: Setaria viridis (SETVI); assay: Herbicidal pre-emergence action, test C (Table C4); details: visual scoring after about 3 weeks, 100% = plants have died, 0% = like control plants
How it was run: as §1

[5] = system: harmful plants ABUTH, AMARE, ECHCG, LOLRI, MATIN, POAAN, SETVI, STEME, ALOMY, DIGSA, KCHSC and VERPE; assay: Herbicidal post-emergence action, summary of Tables B1-B12; details: application rate of 1280 or 320 g of active ingredient per hectare; summary in words
How it was run: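 Greenhouse weeds in sandy loam treated post-emergence at the one-leaf stage, 2–3 weeks after sowing, with WP or EC formulations sprayed with 0.5% additive at 600 L/ha water, 1280 or 320 g/ha. Damage rated visually after about 3 weeks versus untreated controls (0% = like control, 100% = dead).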

[6] = system: Setaria viridis (SETVI); assay: Herbicidal post-emergence action (Table B4); details: 1280 g/ha; rated visually after about 3 weeks; 100% = plants have died, 0% = like control plants
Procedure: (§2) Seeds of mono- and dicotyledonous weed plants were placed in plastic pots in sandy loam soil (doubly sown with in each case one species of mono- or dicotyledonous weed plants per pot), covered with soil and cultivated in a greenhouse under controlled growth conditions. 2 to 3 weeks after sowing, the test plants were treated at the one-leaf stage. The compounds of the invention, formulated in the form of wettable powders (WP) or as emulsion concentrates (EC), were applied onto the green parts of the plants as aqueous suspension or emulsion with addition of 0.5% additive at a water application rate of 600 liters per hectare (converted). After the test plants had been kept in the greenhouse under optimum growth conditions for about 3 weeks, the activity of the preparations was rated visually in comparison to untreated controls. For example, 100% activity=the plants have died, 0% activity=like control plants. Tables B1 to B12 below show the effects of selected compounds of the general formula (I) according to Table 1 on various harmful plants and an application rate corresponding to 1280 or 320 g/ha, which were obtained by the experimental procedure mentioned above.

[7] = system: Stellaria media (STEME); assay: Herbicidal post-emergence action (Table B8); details: visual rating about 3 weeks after treatment, 100% = plants have died, 0% = like control plants
How it was run: (§3)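 Weeds grown from seed in sandy loam in the greenhouse were sprayed at the one-leaf stage, 2 to 3 weeks after sowing, with WP or EC formulations in water plus 0.5% additive at 600 L/ha. Rates corresponded to 1280 or 320 g/ha; damage was rated visually versus untreated controls after about 3 weeks.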

[8] = system: Bassia scoparia (KCHSC); assay: Herbicidal pre-emergence action, test C (Table C11); details: visual scoring vs untreated controls
How it was run: as §1

[9] = system: Alopecurus myosuroides (ALOMY); assay: Herbicidal pre-emergence action, test C (Table C9); details: dosage 1280 g/ha; visual scoring after about 3 weeks; 100% = plants have died, 0% = like control plants
How it was run: as §1

[10] = system: Lolium rigidum (LOLRI); assay: Herbicidal pre-emergence action, test C (Table C2); details: dosage 1280 g/ha; visual scoring after about 3 weeks; 100% = plants have died, 0% = like control plants
How it was run: as §1

[11] = system: Echinochloa crus-galli (ECHCG); assay: Herbicidal post-emergence action (Table B1); details: rated visually after about 3 weeks, 100% = plants have died, 0% = like control plants
How it was run: as §3

[12] = system: Bassia scoparia (KCHSC); assay: Herbicidal post-emergence action (Table B11); details: visual rating about 3 weeks after treatment, 100% = plants have died, 0% = like control plants
How it was run: as §3

[13] = system: Digitaria sanguinalis (DIGSA); assay: Herbicidal pre-emergence action, test C (Table C10); details: visual scoring after about 3 weeks, 100% = plants have died, 0% = like control plants
How it was run: as §1

[14] = system: harmful plants ABUTH, AMARE, ECHCG, LOLRI, MATIN, POAAN, SETVI, STEME, ALOMY, DIGSA, KCHSC and VERPE; assay: Herbicidal pre-emergence action (test C), summary of Tables C1-C12; details: application rate of 1280 or 320 g of active ingredient per hectare; summary in words
How it was run: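 Pre-emergence pot test in sandy loam: WP or EC formulations were sprayed onto the covering soil with 0.5% additive at 600 L/ha water, at 1280 or 320 g/ha. Plants were kept in the greenhouse, and activity was rated visually about 3 weeks later as % versus untreated controls (100% = dead).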

[15] = system: Amaranthus retroflexus (AMARE); assay: Herbicidal post-emergence action (Table B6); details: visual rating about 3 weeks after treatment, 100% = plants have died, 0% = like control plants
How it was run: as §3

[16] = system: Amaranthus retroflexus (AMARE); assay: Herbicidal pre-emergence action, test C (Table C6); details: visual scoring after about 3 weeks, 100% = plants have died, 0% = like control plants
How it was run: as §1

[17] = system: Poa annua (POAAN); assay: Herbicidal post-emergence action (Table B3); details: rated visually after about 3 weeks, 100% = plants have died, 0% = like control plants
How it was run: as §3

[18] = system: Abutilon theophrasti (ABUTH); assay: Herbicidal post-emergence action (Table B5); details: rated visually after about 3 weeks, 100% = plants have died, 0% = like control plants
How it was run: as §3

[19] = system: Alopecurus myosuroides (ALOMY); assay: Herbicidal post-emergence action (Table B9); details: rated visually after about 3 weeks, 100% = plants have died, 0% = like control plants
How it was run: as §3

[20] = system: Matricaria inodora (MATIN); assay: Herbicidal pre-emergence action, test C (Table C7); details: visual scoring after about 3 weeks, 100% = plants have died, 0% = like control plants
How it was run: as §1

[21] = system: Veronica persica (VERPE); assay: Herbicidal pre-emergence action, test C (Table C12); details: visual scoring vs untreated controls
How it was run: as §1

[22] = system: Poa annua (POAAN); assay: Herbicidal pre-emergence action, test C (Table C3); details: visual scoring after about 3 weeks, 100% = plants have died, 0% = like control plants
How it was run: as §1

[23] = system: Veronica persica (VERPE); assay: Herbicidal post-emergence action (Table B12); details: visual rating about 3 weeks after treatment, 100% = plants have died, 0% = like control plants
How it was run: as §3

[24] = system: Lolium rigidum (LOLRI); assay: Herbicidal post-emergence action (Table B2); details: 1280 g/ha; rated visually after about 3 weeks; 100% = plants have died, 0% = like control plants
Procedure: as §2

[25] = system: Digitaria sanguinalis (DIGSA); assay: Herbicidal post-emergence action (Table B10); details: visual rating about 3 weeks after treatment, 100% = plants have died, 0% = like control plants
How it was run: as §3

[26] = system: Matricaria inodora (MATIN); assay: Herbicidal post-emergence action (Table B7); details: 1280 g/ha; rated visually after about 3 weeks; 100% = plants have died, 0% = like control plants
Procedure: as §2

Fc1ccc(Oc2ncc(Cl)cc2F)c(-c2cc(C(F)F)on2)c1 [Example 1-31]
Pre-emergence action against Abutilon theophrasti (ABUTH) ([1]; dosage 320 g/ha): 90% | Pre-emergence action against Abutilon theophrasti (ABUTH) ([1]; dosage 1280 g/ha): 100% | Pre-emergence action against Stellaria media (STEME) ([2]; dosage 320 g/ha): 100% | Pre-emergence action against Stellaria media (STEME) ([2]; dosage 1280 g/ha): 100% | Pre-emergence action against Echinochloa crus-galli (ECHCG) [3]: 100% | Pre-emergence action against Setaria viridis (SETVI) ([4]; dosage 320 g/ha): 100% | Pre-emergence action against Setaria viridis (SETVI) ([4]; dosage 1280 g/ha): 100% | herbicidal activity against the harmful plants of Tables B1-B12 in post-emergence treatment [5]: very good herbicidal activity | Post-emergence action against Setaria viridis (SETVI) [6]: 100% | Post-emergence action against Stellaria media (STEME) ([7]; dosage 320 g/ha): 100% | Post-emergence action against Stellaria media (STEME) ([7]; dosage 1280 g/ha): 100% | Pre-emergence action against Bassia scoparia (KCHSC) ([8]; dosage 320 g/ha): 90% | Pre-emergence action against Bassia scoparia (KCHSC) ([8]; dosage 1280 g/ha): 100% | Pre-emergence action against Alopecurus myosuroides (ALOMY) [9]: 100% | Pre-emergence action against Lolium rigidum (LOLRI) [10]: 100% | Post-emergence action against Echinochloa crus-galli (ECHCG) ([11]; 320 g/ha): 90% | Post-emergence action against Echinochloa crus-galli (ECHCG) ([11]; 1280 g/ha): 100% | Post-emergence action against Bassia scoparia (KCHSC) ([12]; dosage 320 g/ha): 90% | Post-emergence action against Bassia scoparia (KCHSC) ([12]; dosage 1280 g/ha): 100% | Pre-emergence action against Digitaria sanguinalis (DIGSA) ([13]; dosage 320 g/ha): 90% | Pre-emergence action against Digitaria sanguinalis (DIGSA) ([13]; dosage 1280 g/ha): 100% | herbicidal activity against the harmful plants of Tables C1-C12 in pre-emergence treatment [14]: very good herbicidal activity | Post-emergence action against Amaranthus retroflexus (AMARE) ([15]; dosage 320 g/ha): 100% | Post-emergence action against Amaranthus retroflexus (AMARE) ([15]; dosage 1280 g/ha): 100% | Pre-emergence action against Amaranthus retroflexus (AMARE) ([16]; dosage 320 g/ha): 100% | Pre-emergence action against Amaranthus retroflexus (AMARE) ([16]; dosage 1280 g/ha): 100% | Post-emergence action against Poa annua (POAAN) ([17]; 320 g/ha): 100% | Post-emergence action against Poa annua (POAAN) ([17]; 1280 g/ha): 100% | Post-emergence action against Abutilon theophrasti (ABUTH) ([18]; 320 g/ha): 90% | Post-emergence action against Abutilon theophrasti (ABUTH) ([18]; 1280 g/ha): 100% | Post-emergence action against Alopecurus myosuroides (ALOMY) ([19]; 320 g/ha): 100% | Post-emergence action against Alopecurus myosuroides (ALOMY) ([19]; 1280 g/ha): 100% | Pre-emergence action against Matricaria inodora (MATIN) ([20]; dosage 1280 g/ha): 90% | Pre-emergence action against Veronica persica (VERPE) ([21]; dosage 320 g/ha): 100% | Pre-emergence action against Veronica persica (VERPE) ([21]; dosage 1280 g/ha): 100% | Pre-emergence action against Poa annua (POAAN) ([22]; dosage 320 g/ha): 90% | Pre-emergence action against Poa annua (POAAN) ([22]; dosage 1280 g/ha): 100% | Post-emergence action against Veronica persica (VERPE) ([23]; dosage 320 g/ha): 100% | Post-emergence action against Veronica persica (VERPE) ([23]; dosage 1280 g/ha): 100% | Post-emergence action against Lolium rigidum (LOLRI) [24]: 90% | Post-emergence action against Digitaria sanguinalis (DIGSA) ([25]; dosage 320 g/ha): 90% | Post-emergence action against Digitaria sanguinalis (DIGSA) ([25]; dosage 1280 g/ha): 100%

Cc1cc(C)c(-c2cc(C(F)F)no2)c(Oc2ncc(Cl)cc2F)c1 [Example 1-79]
Pre-emergence action against Abutilon theophrasti (ABUTH) ([1]; dosage 1280 g/ha): 90% | Pre-emergence action against Stellaria media (STEME) ([2]; dosage 320 g/ha): 100% | Pre-emergence action against Stellaria media (STEME) ([2]; dosage 1280 g/ha): 100% | Pre-emergence action against Setaria viridis (SETVI) ([4]; dosage 1280 g/ha): 100% | herbicidal activity against the harmful plants of Tables B1-B12 in post-emergence treatment [5]: very good herbicidal activity | Post-emergence action against Stellaria media (STEME) ([7]; dosage 320 g/ha): 100% | Post-emergence action against Stellaria media (STEME) ([7]; dosage 1280 g/ha): 100% | Pre-emergence action against Alopecurus myosuroides (ALOMY) [9]: 90% | Post-emergence action against Bassia scoparia (KCHSC) ([12]; dosage 320 g/ha): 90% | Post-emergence action against Bassia scoparia (KCHSC) ([12]; dosage 1280 g/ha): 90% | Pre-emergence action against Digitaria sanguinalis (DIGSA) ([13]; dosage 1280 g/ha): 100% | herbicidal activity against the harmful plants of Tables C1-C12 in pre-emergence treatment [14]: very good herbicidal activity | Post-emergence action against Amaranthus retroflexus (AMARE) ([15]; dosage 320 g/ha): 100% | Post-emergence action against Amaranthus retroflexus (AMARE) ([15]; dosage 1280 g/ha): 100% | Pre-emergence action against Amaranthus retroflexus (AMARE) ([16]; dosage 320 g/ha): 100% | Pre-emergence action against Amaranthus retroflexus (AMARE) ([16]; dosage 1280 g/ha): 100% | Post-emergence action against Poa annua (POAAN) ([17]; 320 g/ha): 100% | Post-emergence action against Poa annua (POAAN) ([17]; 1280 g/ha): 100% | Post-emergence action against Abutilon theophrasti (ABUTH) ([18]; 320 g/ha): 100% | Post-emergence action against Abutilon theophrasti (ABUTH) ([18]; 1280 g/ha): 100% | Post-emergence action against Alopecurus myosuroides (ALOMY) ([19]; 1280 g/ha): 90% | Pre-emergence action against Matricaria inodora (MATIN) ([20]; dosage 320 g/ha): 100% | Pre-emergence action against Matricaria inodora (MATIN) ([20]; dosage 1280 g/ha): 100% | Pre-emergence action against Veronica persica (VERPE) ([21]; dosage 1280 g/ha): 100% | Pre-emergence action against Poa annua (POAAN) ([22]; dosage 320 g/ha): 90% | Pre-emergence action against Poa annua (POAAN) ([22]; dosage 1280 g/ha): 100% | Post-emergence action against Matricaria inodora (MATIN) [26]: 90% | Post-emergence action against Veronica persica (VERPE) ([23]; dosage 320 g/ha): 100% | Post-emergence action against Veronica persica (VERPE) ([23]; dosage 1280 g/ha): 100% | Post-emergence action against Digitaria sanguinalis (DIGSA) ([25]; dosage 1280 g/ha): 100%
